Laboratory results: patent US9199959B2, “HIV replication inhibitor” (Shionogi & Co., Ltd., priority 2011, dated 2015)

Experiments:
[1] = system: HIV (HTLV-III B strain); assay: HIV replication inhibition assay (MTT, MT-4 cells); assay type: cell-based; conditions: Human immunodeficiency virus 1, MT4, 96 h, four days culture, concentration at which cell cytotoxicity by virus is inhibited 50%
Procedure: HIV (HTLV-III B strain) persistent infected human T cell strain Molt-4 clone 8 was cultured in 10% Fetal Bovine Serum-containing RPMI-1640 medium and the supernatant was filtrated, then the virus titer was measured and the solution was stored at −80° C. Each anti-human immunodeficiency virus active substance was diluted with the above cultured medium to the designated concentration, which was dispensed into 96 well micro plate by 50 μL. Next, a MT-4 cell suspended liquid was dispensed by 100 μL (2.5×10^4 cells), then the above HIV-containing supernatant diluted with the above cultured medium was added thereto by 50 μL (60 pfu (plaque forming unit)).
The obtained mixture was cultured at 37° C. in CO2 incubator for four days, then 3-(4,5-dimehylthiazole-2-yl)-2,5-diphenyltetrazolynium bromide (MTT) 5 mg/mL in PBS was added to each well by 30 μL, followed by 1 hr-cultivation. In this step, as formazan was precipitated by reduction of MTT in living cells, the cell supernatant was removed from all well by 150 μL, then a 150 μL of solution (10% Triton X-100 and […]) was added thereto, followed by shaking with a plate mixer, to elute formazan. The formazan was measured with a microreader at OD: 560 nm and 690 nm (wavelength) and the result was compared with the reference. EC50 means the compound concentration at which cell cytotoxicity by virus is inhibited 50%.

[2] = system: Salmonella typhimurium TA98 strain, TA100 strain; assay type: cell-based; conditions: Salmonella typhimurium TA98, TA100, non-metabolism and metabolism activating condition
Procedure: The mutagenicity of the compound of the present invention was assayed.
20 μL of freezing-stored rat typhoid bacillus (Salmonella typhimurium TA98 strain, TA100 strain) was inoculated on 10 mL of a liquid nutrient medium (2.5% Oxoid nutrient broth No. 2), and this was cultured before shaking at 37° C. for 10 hours. 9 mL of a bacterial solution of the TA98 strain was centrifuged (2000×g, 10 minutes) to remove a culturing solution. The bacteria was suspended in F buffer (K2HPO4: 3.5 g/L, KH2PO4: 1 g/L, (NH4)2SO4: 1 g/L, trisodium citrate dehydrate: 0.25 g/L, MgSO4.7H2O: 0.1 g/L), and the suspension was added to 110 mL of an Exposure medium (Micro F buffer containing Biotin: 8 μg/mL, histidine: 0.2 μg/mL, glucose: 8 mg/mL). The TA100 strain was added to 120 mL of the Exposure medium per 3.16 mL of the bacterial solution to prepare a test bacterial solution. […] of a test substance DMSO solution (several stage dilution from maximum dose 50 mg/mL at 2- to 3-fold ratio), DMSO as a negative control, 50 μg/mL of 4-nitroquinoline-1-oxide DMSO solution for the TA98 strain, 0.25 μg/mL of 2-(2-furyl)-3-(5-nitro-2-furyl)acrylamide DMSO solution for the TA100 strain each under the non-metabolism activating condition, 40 μg/mL of 2-aminoanthracene DMSO solution for the TA98 strain, 20 μg/mL of 2-aminoanthracene DMSO solution for the TA100 strain each under the metabolism activating condition all as a positive control, and 588 μL of the test bacterial solution (a mixed solution of 498 μL of the test bacterial solution and 90 μL of S9 mix under the metabolism activating condition) were mixed, and this was shaking-cultured at 37° C. for 90 minutes. […] Since a well containing a bacterium which has obtained the proliferation ability by mutation of an amino acid (histidine) synthesizing enzyme gene turns from purple to yellow due to a pH change, the bacterium proliferation well which has turned to yellow in 48 wells per dose is counted, and was assessed by comparing with a negative control group. […]

Row | Compound | EC50 [1] | mutagenicity [2]
1 | CCNC(=O)Nc1c(C)c(C(OC(C)(C)C)C(=O)O)c(-c2ccc(C)c(C)c2)c(C)c1-c1ccc(C)c(C)c1 (stereo not shown) [Compound I-11] | 21 nM | negative
2 | Cc1ccc(-c2c(C)c(-c3ccc(C)c(C)c3)c(C(OC(C)(C)C)C(=O)O)c(C)c2NS(C)(=O)=O)cc1C (stereo not shown) [Compound I-12] | 6.4 nM | negative
